This assay concerns 415267-285-R-J2-PDC complex spheroid viability. As to the kind of experiment: Anticancer human tumor 415267-285-R-J2-PDC patient-derived breast carcinoma cell line growth inhibition [POLQ]. To be noted: for viability, T/C: stronger effect = lower value. As for the experimental part:
Multicellular complex tumor spheroid response to Polymerase (POL) inhibitors (novobiocin, ART-558, RP6685) in combination with a variety of drugs and investigational agents in selected tumor cell lines
The POL inhibitors (novobiocin, ART-558, and RP6685) were evaluated both individually and in combination with standard of care and investigational anticancer small molecules within a complex spheroid model of solid tumors. . Complex spheroids include a stromal component modeled by human endothelial cells (HUVEC) and fibroblasts modeled by human mesenchymal stem cells (MSCs). The concentration ranges selected for each drug and investigational agent were based upon clinically achievable concentrations if the clinical Cmax of the agent was known.
Compounds. The drugs and investigational agents: novobiocin (NSC847541), ART-558 (NSC835418), RP-6685 (NSC848927), peposertib (NSC802822), ceralasertib (NSC780249), elimusertib (NSC800525), camonsertib (NSC841442), AZD-1390 (NSC803789), olaparib (NSC753686), talazoparib (NSC767125), rucaparib (NSC756644), sotorasib (NSC818433), MRTX-1133 (NSC836407), SN-38 (NSC673596), topotecan (NSC609699), epotoside (NSC141540), doxorubicin (NSC123127), gemcitabine (NSC613327), 5-fluorouracil (NSC19893), paclitaxel (NSC125973), vemurafenib (NSC761431), MSA-2 (NSC828583), SN-011 (NSC837082), adavosertib (NSC754352), prexasertib (NSC758257), carboplatin (NSC241240) and oxaliplatin (NSC266046), were obtained from the National Cancer Institute (NCI) Developmental Therapeutics Program Chemical Repository (21). The FDA-approved anticancer drug set is available from the Developmental Therapeutics Program at https://dtp.cancer.gov/organization/dscb/obtaining/. […] The stock solutions were prepared in dimethyl sulfoxide (DMSO, Sigma-Aldrich, St. Louis, MO, cat. D2650), except for the platinum compounds which were prepared in saline (Quality Biological, Gaithersburg, MD, cat. 114-055-101), at 800-fold the tested concentration and stored at -70 degrees C prior to their use. All drugs and investigational agents were tested over a range starting from a high concentration at or near the clinical Cmax and decreasing in half-log increments. If the clinical Cmax for an agent had not been determined, the highest concentration tested was 10 microM, except for SN-38, which was tested at a high concentration of 1 microM.
Cell Culture. All cells were maintained in an incubator at 37 degrees C and 5% CO2 with 95% humidity. The PDC lines were cultured according to standard operating procedures established by the NCI PDMR (https://pdmr.cancer.gov). Table 3 of the manuscript, lists the cell lines along with the number of the three cell types plated to form the mct-spheroids and media for tumor cell growth. After thawing, all PDC lines, except 997537-175-T-J1-PDC and 415267-285-R-J2-PDC, were cultured in Matrigel-coated flasks prepared with a working solution of 1X Ham's F-12 nutrient mix, without supplementation (Thermo Fisher Scientific, cat. 11765054), 100 U/mL penicillin-streptomycin (Thermo Fisher Scientific, cat. 15140122), and 2.5% Matrigel (Corning Inc., Corning, NY, cat. 354248) for the first three passages. The two PDC lines 997537-175-T-J1-PDC and 415267-285-R-J2-PDC were cultured on uncoated flasks. The 857933-349-R-J2-PDC line was cultured in 6C/Colon 1B media containing advanced DMEM/F-12 (Thermo Fisher Scientific, cat. 12634028), 10 mM HEPES (Thermo Fisher Scientific, cat. 15630080), 1X GlutaMAX supplement (Thermo Fisher Scientific, cat. 35050061), 0.1 mg/mL primocin (InvivoGen, San Diego, CA, cat. ant-pm-2), 10% defined fetal bovine serum, heat inactivated (HyClone Laboratories Inc., Logan, UT, cat. SH30070.03HI), 50% L-WRN conditioned media (ATCC, cat. CRL-3276), 1.25 mM N-Acetyl-L-cysteine (Sigma-Aldrich, cat. A9165), 10 mM nicotinamide (Sigma-Aldrich, cat. N0636), 1X B-27 supplement (Thermo Fisher Scientific, cat. 17504044), 1X N-2 supplement (Thermo Fisher Scientific, cat. […]

Several values for one entry are separate records, joined by “and”; a condition that tells them apart may be missing. Equal entries are not always repeated.
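Further: spheroids exposed to compounds for one week before readout.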
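Wherever viability, T/C is given: luminescence used as stand-in measure of viable cells.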

One may read the viability, T/C as the ratio of treated to control. The IC50 is the concentration that inhibits the measured activity by half. As for `C#Cc1c(F)ccc2cc(O)cc(-c3ncc4c(N5CC6CCC(C5)N6)nc(OCC56CCCN5CC(F)C6)nc4c3F)c12` (configuration not stated), the viability, T/C by setting is: (compound 0.0316 µM) 106% and 95.4% and 97.2%; (compound 0.1 µM) 103% and 112% and 92.5%; (compound 0.316 µM) 102% and 106% and 94.2%; (compound 1 µM) 107% and 109% and 97.7%; (compound 3.16 µM) 106% and 91.5% and 101%; (compound 10 µM) 101% and 98% and 104%. In addition, the IC50 (curve of compound) was > 10000 nM.
In the case of `C=CC(=O)N1CCN(c2nc(=O)n(-c3c(C)ccnc3C(C)C)c3nc(-c4c(O)cccc4F)c(F)cc23)C(C)C1` (configuration not stated), the viability, T/C is 88.5% and 95.7% and 91.3% (compound 0.0316 µM); 105% and 106% and 98.2% (compound 0.1 µM); 97.6% and 105% and 93.3% (compound 0.316 µM); 91% and 116% and 101% (compound 1 µM); 98.9% and 108% and 113% (compound 3.16 µM); 103% and 107% and 96.3% (compound 10 µM). For the same compound, the IC50 (curve of compound) is > 10000 nM.
With `CC1COCCN1c1cc(C2(O)CC3CCC(C2)O3)c2cnn(-c3ccn[nH]3)c2n1` (configuration not stated), the viability, T/C is, setting by setting: (compound 0.0316 µM) 18.3% and 19.4% and 19.9%; (compound 0.1 µM) 6.66% and 6.95% and 6.71%; (compound 0.316 µM) 5.68% and 5.24% and 4.27%; (compound 1 µM) 3.96% and 5.04% and 3.53%; (compound 3.16 µM) 6.45% and 6.44% and 3.52%; (compound 10 µM) 4.11% and 4.93% and 2.88%. Besides, the IC50 (curve of compound) is < 31.6 nM.
For `CCc1cc2c(N3CCc4c(cc(Cn5ccnc5)cc4-c4cn(C)nc4C(F)(F)F)C3=O)cc(C)nc2c(OC)n1`, the viability, T/C by setting is: (compound 0.0316 µM) 84.8% and 99.7% and 90.9%; (compound 0.1 µM) 89.5% and 98.3% and 92.6%; (compound 0.316 µM) 74.6% and 79% and 86.6%; (compound 1 µM) 80.3% and 82.8% and 91.5%; (compound 3.16 µM) 71.9% and 84% and 83.9%; (compound 10 µM) 69% and 78.6% and 69.5%. Moreover, the IC50 (curve of compound) was > 10000 nM.
For the compound `CCc1cc2c(N3CCc4c(cc(Cn5ccnc5)cc4-c4cn(C)nc4C(F)(F)F)C3=O)ccnc2c(OC)n1`, the viability, T/C was 82.8% and 92.9% and 84.3% (compound 0.0316 µM); 82.9% and 92.8% and 96.7% (compound 0.1 µM); 85.8% and 89.2% and 90.2% (compound 0.316 µM); 83.7% and 94.3% and 90% (compound 1 µM); 82.2% and 82.6% and 86.5% (compound 3.16 µM); 75.7% and 84.4% and 75.4% (compound 10 µM). The IC50 (curve of compound) was > 10000 nM.
For the compound `COc1cc2cc(C(=O)CCC(=O)O)sc2cc1OC`, the viability, T/C (compound 0.0316 µM) is 99.2% and 104% and 92.9%; the viability, T/C (compound 0.1 µM) is 101% and 104% and 90.8%; the viability, T/C (compound 0.316 µM) is 93.2% and 88% and 110%; the viability, T/C (compound 1 µM) is 104% (2×) and 99.6%; the viability, T/C (compound 3.16 µM) is 94.7% and 99.9% and 99.6%; the viability, T/C (compound 10 µM) was 111% and 99.6% and 109%. Besides, the IC50 (curve of compound) was > 10000 nM.
`Nc1ccn(C2OC(CO)C(O)C2(F)F)c(=O)n1` (configuration not stated): the viability, T/C reads like this: (compound 0.1 µM) 5.29% and 5.02% and 7.12%; (compound 0.316 µM) 6.27% and 4.87% and 6.14%; (compound 1 µM) 5.28% and 7.75% and 7.66%; (compound 3.16 µM) 5.29% and 4.37% and 5.37%; (compound 10 µM) 6.07% and 4.68% and 5.14%. Also, the IC50 (curve of compound) is < 31.6 nM.
In the case of `O=C(Nc1ccc(O)c(NS(=O)(=O)c2ccc(F)cc2)c1)c1ccc(-c2ccccc2)cc1`, the viability, T/C is 111% and 102% and 103% (compound 0.0316 µM); 108% and 97.2% and 98.4% (compound 0.1 µM); 107% and 98.6% and 103% (compound 0.316 µM); 92.3% and 107% and 105% (compound 1 µM); 109% and 101% and 98.1% (compound 3.16 µM); 68.7% and 71.7% and 46.8% (compound 10 µM). The IC50 (curve of compound) is > 10000 nM and 9320 nM.
With `COc1cccc2c1C(=O)c1c(O)c3c(c(O)c1C2=O)CC(O)(C(=O)CO)CC3OC1CC(N)C(O)C(C)O1` (configuration not stated) + COC1C(OC(N)=O)C(O)C(Oc2ccc3c(O)c(NC(=O)c4ccc(O)c(CC=C(C)C)c4)c(=O)oc3c2C)OC1(C)C, the IC50 is 44.6 nM (curve of first compound, second compound 0.0316 µM); 37.5 nM (curve of first compound, second compound 0.1 µM); 35.2 nM (curve of first compound, second compound 0.316 µM); < 31.6 nM (curve of first compound, second compound 1 µM); 39 nM (curve of first compound, second compound 3.16 µM); 44 nM (curve of first compound, second compound 10 µM). Further, the viability, T/C is 66.1% (second compound 0.0316 µM, first compound 0.0316 µM); 12.3% (second compound 0.0316 µM, first compound 0.1 µM); 5.33% (second compound 0.0316 µM, first compound 0.316 µM); 1.27% (second compound 0.0316 µM, first compound 1 µM); 0.99% (second compound 0.0316 µM, first compound 3.16 µM); 3% (second compound 0.0316 µM, first compound 10 µM). For the same compound, the viability, T/C reads like this: (second compound 0.1 µM, first compound 0.0316 µM) 55.7%; (second compound 0.1 µM, first compound 0.1 µM) 17.9%; (second compound 0.1 µM, first compound 0.316 µM) 5.82%; (second compound 0.1 µM, first compound 1 µM) 0.96%; (second compound 0.1 µM, first compound 3.16 µM) 1.01%; (second compound 0.1 µM, first compound 10 µM) 2.7%. In addition, the viability, T/C is, setting by setting: (second compound 0.316 µM, first compound 0.0316 µM) 54.2%; (second compound 0.316 µM, first compound 0.1 µM) 12%; (second compound 0.316 µM, first compound 0.316 µM) 4.95%; (second compound 0.316 µM, first compound 1 µM) 0.99%; (second compound 0.316 µM, first compound 3.16 µM) 0.89%; (second compound 0.316 µM, first compound 10 µM) 2.53%. Moreover, the viability, T/C reads like this: (second compound 1 µM, first compound 0.0316 µM) 48.8%; (second compound 1 µM, first compound 0.1 µM) 11.6%; (second compound 1 µM, first compound 0.316 µM) 5.43%; (second compound 1 µM, first compound 1 µM) 1.06%; (second compound 1 µM, first compound 3.16 µM) 1.03%; (second compound 1 µM, first compound 10 µM) 2.68%. For the same compound, the viability, T/C (second compound 3.16 µM, first compound 0.0316 µM) was 58.4%; the viability, T/C (second compound 3.16 µM, first compound 0.1 µM) was 12.5%; the viability, T/C (second compound 3.16 µM, first compound 0.316 µM) was 4.68%; the viability, T/C (second compound 3.16 µM, first compound 1 µM) was 1.06%; the viability, T/C (second compound 3.16 µM, first compound 3.16 µM) is 1.25%; the viability, T/C (second compound 3.16 µM, first compound 10 µM) is 2.55%. Further, the viability, T/C is, setting by setting: (second compound 10 µM, first compound 0.0316 µM) 63.9%; (second compound 10 µM, first compound 0.1 µM) 16%; (second compound 10 µM, first compound 0.316 µM) 5.78%; (second compound 10 µM, first compound 1 µM) 1.44%; (second compound 10 µM, first compound 3.16 µM) 1.38%; (second compound 10 µM, first compound 10 µM) 3.32%.
